Results taken from patent US20240269135A1, “METHODS OF TREATING BREAST CANCER” (ASTRAZENECA AB, priority 2021, published 2024).

Experiments:
[1] = OlympiA safety analysis: adverse events, blood transfusions; format: in vivo
Experimental: Efficacy analyses were based on the intention-to-treat (ITT) population. Survival functions were estimated by Kaplan-Meier method. The stratified Cox proportional-hazards model was used to estimate the hazard ratio and confidence intervals, the comparison of survival between treatment arms was tested by stratified log-rank test. […] Safety was assessed in the population who received at least one dose of study medication.
Adverse events of special interest included pneumonitis, radiation pneumonitis, myelodysplastic syndrome (MDS)/AML, and new primary malignancy other than AML/MDS.

[2] = OlympiA exposure to study treatment, dose intensity, dose reductions and treatment discontinuations; format: in vivo, human; conditions: safety analysis set; 300 mg bd, N = 911
Experimental: A total of 1815 patients (911 in the olaparib-group and 904 in the placebo-group) were included in the safety analysis. The median number of days at 300 mg twice-daily protocol dose was 338 with percentage of intended dose being 94.8% in the olaparib-group, and 358 days and 98.9% in the placebo-group (Tables S11 to S13 in the Supplementary Appendix). Early treatment discontinuations, including discontinuations due to recurrence, occurred in 236 (25.9%) of the olaparib-group and 187 (20.7%) of the placebo-group (Figure S4 in the Supplementary Appendix).
In the olaparib-group, 228 patients (25.0%) required a dose reduction compared to 47 (5.2%) in the placebo-group. Adverse events requiring permanent discontinuation of the trial drug occurred in 90 patients (9.9%) in the olaparib-group and 38 patients (4.2%) in the placebo-group. […] (Table S15, S16 in the Supplementary Appendix). […] Any differences between the treatment arms are not considered clinically significant (Figure S5 in the Supplementary Appendix).

[3] = system: metastatic HER2-negative breast cancer patients with gBRCA-P/LP variants; conditions: 45% received capecitabine as comparator; cited from earlier work
[4] = olaparib group, safety analysis set
[5] = safety analysis set, olaparib n=911
[6] = safety analysis set, olaparib n=911, listed as olaparib
[7] = safety analysis set, 300 mg bd, N = 911
[8] = treatment month: >=1-2 months, 300 mg bd, N = 911
[9] = treatment month: >=2-3 months, 300 mg bd, N = 911
[10] = treatment month: >=3-4 months, 300 mg bd, N = 911
[11] = treatment month: >=4-5 months, 300 mg bd, N = 911
[12] = treatment month: >=5-6 months, 300 mg bd, N = 911
[13] = treatment month: >=6-7 months, 300 mg bd, N = 911
[14] = treatment month: >=7-8 months, 300 mg bd, N = 911
[15] = treatment month: >=8-9 months, 300 mg bd, N = 911
[16] = treatment month: >=9-10 months, 300 mg bd, N = 911
[17] = treatment month: >=10-11 months, 300 mg bd, N = 911
[18] = treatment month: >=11 months, 300 mg bd, N = 911
[19] = treatment month: Up to month 1, 300 mg bd, N = 911

Question: For `O=C(c1cc(Cc2n[nH]c(=O)c3ccccc23)ccc1F)N1CCN(C(=O)C2CC2)CC1` [Olaparib, 4-[(3-{[4-(cyclopropane-carbonyl)piperazine-1-yl]carbonyl}-4-fluorophenyl)methyl]-2H-phthalazin-1-one], which “anemia leading to discontinuation of study drug” value [1, 4] is on record?
Answer: 1.8%

Question: What about the “fatigue leading to discontinuation of study drug” value [1, 4] of the same compound?
Answer: 1.3%

Question: And the “nausea leading to discontinuation of study drug” value [1, 4]?
Answer: 2.0%

Question: What about the “neutrophil count decreased leading to discontinuation of study drug” value [1, 4] of the same compound?
Answer: 1%

Question: And the “Number of patients with only 1 transfusion” value ([1]; safety analysis set, olaparib N=911)?
Answer: 4.1%

Question: And the “Patients with at least one blood transfusion” value ([1]; safety analysis set, olaparib N=911, up to 30 days after last dose)?
Answer: 5.8%

Question: And the “Neutrophil count decreased (neutropenia), Grade ≥3” value [1, 5]?
Answer: (4.8) %

Question: And the “Neutrophil count decreased, Grade ≥3” value [1, 5]?
Answer: 44 no.

Question: And the “White blood cell count decreased (leukopenia), Grade ≥3” value [1, 5]?
Answer: (3.0) %

Question: And the “White blood cell count decreased, Grade ≥3” value [1, 5]?
Answer: 27 no.

Question: And the “Anemia, Grade ≥3” value [1, 6]?
Answer: 8.7%

Question: And the “Fatigue, Grade ≥3” value [1, 6]?
Answer: 1.8%

Question: And the “Neutrophil count decreased (neutropenia), Grade ≥3” value [1, 6]?
Answer: 4.8%

Question: And the “White blood cell count decreased (leukopenia), Grade ≥3” value [1, 6]?
Answer: 3.0%

Question: And the “AE leading to permanent discontinuation of treatment: Abdominal pain upper” value [1, 7]?
Answer: 1 (0.1) no. of patients (%)

Question: And the “AE leading to permanent discontinuation of treatment: Anaemia” value [1, 7]?
Answer: 16 (1.8) no. of patients (%)

Question: And the “AE leading to permanent discontinuation of treatment: Arthralgia” value [1, 7]?
Answer: 1 (0.1) no. of patients (%)

Question: What about the “AE leading to permanent discontinuation of treatment: Breast cancer” value [1, 7] of the same compound?
Answer: 1 (0.1) no. of patients (%)

Question: And the “AE leading to permanent discontinuation of treatment: Decreased appetite” value [1, 7]?
Answer: 2 (0.2) no. of patients (%)

Question: And the “AE leading to permanent discontinuation of treatment: Diarrhoea” value [1, 7]?
Answer: 3 (0.3) no. of patients (%)

Question: What about the “AE leading to permanent discontinuation of treatment: Dizziness” value [1, 7] of the same compound?
Answer: 2 (0.2) no. of patients (%)

Question: And the “AE leading to permanent discontinuation of treatment: Drug hypersensitivity” value [1, 7]?
Answer: 3 (0.3) no. of patients (%)

Question: And the “AE leading to permanent discontinuation of treatment: Fatigue” value [1, 7]?
Answer: 12 (1.3) no. of patients (%)

Question: What about the “AE leading to permanent discontinuation of treatment: Headache” value [1, 7] of the same compound?
Answer: 7 (0.8) no. of patients (%)

Question: What about the “AE leading to permanent discontinuation of treatment: Nausea” value [1, 7] of the same compound?
Answer: 18 (2.0) no. of patients (%)

Question: And the “AE leading to permanent discontinuation of treatment: Neutrophil count decreased” value [1, 7]?
Answer: 9 (1.0) no. of patients (%)

Question: And the “AE leading to permanent discontinuation of treatment: Pruritus” value [1, 7]?
Answer: 3 (0.3) no. of patients (%)

Question: And the “AE leading to permanent discontinuation of treatment: Vomiting” value [1, 7]?
Answer: 7 (0.8) no. of patients (%)

Question: And the “AE leading to permanent discontinuation of treatment: White blood cell count decreased” value [1, 7]?
Answer: 6 (0.7) no. of patients (%)

Question: What about the “Any AE leading to permanent discontinuation” value [1, 7] of the same compound?
Answer: 90 (9.9) no. of patients (%)

Question: What about the “lymphopenia, grade 3 or higher” value ([1]; safety analysis, olaparib-group) of the same compound?
Answer: 1.2%

Question: And the “Blood transfusions over time, Total no. of transfusions” value [1, 8]?
Answer: 2

Question: And the “Blood transfusions over time, no. of patients (%)” value [1, 8]?
Answer: 2 (0.2) no. of patients (%)

Question: And the “Blood transfusions over time, Total no. of transfusions” value [1, 9]?
Answer: 22

Question: What about the “Blood transfusions over time, no. of patients (%)” value [1, 9] of the same compound?
Answer: 21 (2.3) no. of patients (%)

Question: What about the “Blood transfusions over time, Total no. of transfusions” value [1, 10] of the same compound?
Answer: 10

Question: What about the “Blood transfusions over time, no. of patients (%)” value [1, 10] of the same compound?
Answer: 8 (0.9) no. of patients (%)

Question: What about the “Blood transfusions over time, Total no. of transfusions” value [1, 11] of the same compound?
Answer: 5

Question: What about the “Blood transfusions over time, no. of patients (%)” value [1, 11] of the same compound?
Answer: 5 (0.5) no. of patients (%)

Question: And the “Blood transfusions over time, Total no. of transfusions” value [1, 12]?
Answer: 8

Question: And the “Blood transfusions over time, no. of patients (%)” value [1, 12]?
Answer: 7 (0.8) no. of patients (%)

Question: What about the “Blood transfusions over time, Total no. of transfusions” value [1, 13] of the same compound?
Answer: 4

Question: And the “Blood transfusions over time, no. of patients (%)” value [1, 13]?
Answer: 4 (0.4) no. of patients (%)

Question: What about the “Blood transfusions over time, Total no. of transfusions” value [1, 14] of the same compound?
Answer: 8

Question: What about the “Blood transfusions over time, no. of patients (%)” value [1, 14] of the same compound?
Answer: 8 (0.9) no. of patients (%)

Question: What about the “Blood transfusions over time, Total no. of transfusions” value [1, 15] of the same compound?
Answer: 3

Question: And the “Blood transfusions over time, no. of patients (%)” value [1, 15]?
Answer: 3 (0.3) no. of patients (%)

Question: And the “Blood transfusions over time, Total no. of transfusions” value [1, 16]?
Answer: 2

Question: And the “Blood transfusions over time, no. of patients (%)” value [1, 16]?
Answer: 2 (0.2) no. of patients (%)

Question: What about the “Blood transfusions over time, Total no. of transfusions” value [1, 17] of the same compound?
Answer: 3

Question: What about the “Blood transfusions over time, no. of patients (%)” value [1, 17] of the same compound?
Answer: 3 (0.3) no. of patients (%)

Question: What about the “Blood transfusions over time, Total no. of transfusions” value [1, 18] of the same compound?
Answer: 5

Question: And the “Blood transfusions over time, no. of patients (%)” value [1, 18]?
Answer: 5 (0.5) no. of patients (%)

Question: And the “Blood transfusions over time, Total no. of transfusions” value [1, 19]?
Answer: 2

Question: What about the “Blood transfusions over time, no. of patients (%)” value [1, 19] of the same compound?
Answer: 2 (0.2) no. of patients (%)

Question: And the “Number of patients with a dose reduction: 1 dose reduction (%)” value [2]?
Answer: 170 (18.7) patients (%)

Question: And the “Number of patients with a dose reduction: 2 dose reductions (%)” value [2]?
Answer: 57 (6.3) patients (%)

Question: What about the “Number of patients with a dose reduction: 3 or more dose reductions (%)” value [2] of the same compound?
Answer: 1 (0.1) patients (%)

Question: And the “Patients with a dose reduction (%)” value [2]?
Answer: 228 (25.0) patients (%)

Question: What about the “Patients with no dose reduction (%)” value [2] of the same compound?
Answer: 683 (75.0) patients (%)

Question: What about the “Reason for reduction: Administrative reasons (%)” value [2] of the same compound?
Answer: 2 (0.2) patients (%)

Question: What about the “Reason for reduction: Adverse event (%)” value [2] of the same compound?
Answer: 222 (24.4) patients (%)

Question: And the “Reason for reduction: Dosing error (%)” value [2]?
Answer: 6 (0.7) patients (%)

Question: What about the “Reason for reduction: Other (%)” value [2] of the same compound?
Answer: 0 (0.0) patients (%)

Question: What about the “Total number of dose reductions” value [2] of the same compound?
Answer: 287

Question: What about the progression-free-survival versus chemotherapy [3] of the same compound?
Answer: more effective than chemotherapy
